The target in this test is T1, wild-type human ALK protein (cytoplasmic domain, amino acid 1058-1620, N-terminal GST-fusion) (Homo sapiens, UniProt Q9UM73).
T1 construct: The cytoplasmic domain (amino acid 1058-1620) of wild-type human ALK protein; GST (N); purchased Carna Biosciences, Inc (Japan)
In words: Enzymatic inhibition assay (time-resolved fluorescence, peptide substrate phosphorylation). It is filed as biochemical. To be noted: ATP 100 μM, 30 min pre-incubation, 90 min reaction, read-out: WT IC50. How it is done: Enzymatic Inhibition Assay
The cytoplasmic domain (amino acid 1058-1620) of wild-type human ALK protein expressed as N-terminal GST-fusion protein was purchased from Carna Biosciences, Inc (Japan). Compound solution (2.5 μL) and 5 μL of protein solution were added into a black low volume 384 well microtiter plate which was incubated for 30 minutes with gentle shaking at room temperature, followed by adding 2.5 μL of fluorescently labeled peptide substrate and ATP mixture solution. The kinase reaction was performed in 50 mM HEPES (pH 7.5) with 1 mM EGTA, 1 mM MgCl2, and 2 mM DTT, 0.01% Tween-20 added immediately prior to the assay. Final concentrations of ATP, substrates, and DMSO were 100 μM, 20 nM, and 0.5%, respectively. The final ALK concentrations were […]. The reaction was allowed to proceed for 90 minutes in the dark with gentle shaking at rt after which 10 μL of 20 mM EDTA and 2 nM Eu-W1024 anti-phosphotyrosine antibody (PT66) mixture solution in the detection buffer from the manufacturer was added to terminate the reaction and detect the phosphorylation of the peptide substrate. The final mixture was incubated in the dark for 1 h before the plate was read on a Tecan Infinite M-1000 multi-mode plate reader (Tecan, Durham N.C.) with an excitation wavelength of 320 nm. Emission intensities were measured at both 620 and 665 nm with the intensity ratio between 665 and 620 nm corresponding to the peptide substrate phosphorylation. IC50 values of inhibitors were obtained by fitting the ratio of 665/620 nm vs inhibitor concentrations in a sigmoidal dose-response curve (variable slope) with a non-linear regression.

This is an account of results in patent publication US20210087188A1, “5,6-DIHYDRO-1 1H-INDOLO{2,3-B}QUINOLIN- 11-ONE COMPOUNDS AS ALK INHIBITORS” (THE REGENTS OF THE UNIVERSITY OF MICHIGAN, priority 2018, published 2021).

Structures can show the parent of a compound that is named as a salt.

T1 sequence (Q9UM73 1058-1620): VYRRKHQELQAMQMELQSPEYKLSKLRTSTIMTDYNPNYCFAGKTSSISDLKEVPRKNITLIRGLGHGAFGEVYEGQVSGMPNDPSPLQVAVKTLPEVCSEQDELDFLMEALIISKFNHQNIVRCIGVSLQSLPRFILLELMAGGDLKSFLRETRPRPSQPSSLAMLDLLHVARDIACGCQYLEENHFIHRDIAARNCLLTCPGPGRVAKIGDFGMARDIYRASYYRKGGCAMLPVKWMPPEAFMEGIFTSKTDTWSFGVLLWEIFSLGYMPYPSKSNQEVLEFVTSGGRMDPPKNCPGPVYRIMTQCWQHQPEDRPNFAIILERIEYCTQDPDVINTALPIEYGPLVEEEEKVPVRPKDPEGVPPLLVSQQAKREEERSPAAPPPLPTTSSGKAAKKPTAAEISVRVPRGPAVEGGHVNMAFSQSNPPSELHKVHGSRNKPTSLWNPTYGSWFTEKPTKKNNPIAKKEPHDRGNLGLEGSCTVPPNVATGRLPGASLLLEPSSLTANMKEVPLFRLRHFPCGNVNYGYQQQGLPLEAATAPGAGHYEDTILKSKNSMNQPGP

As usually defined, the IC50 is the point on the concentration scale where inhibition reaches its midpoint. With `CC(C)Oc1c(N2CCN(C(C)C)CC2)cc2c(c1F)c(=O)c1c3ccc(C#N)cc3[nH]c1n2C(C)C` [compound 4, 1-fluoro-2-isopropoxy-5-isopropyl-3-(4-isopropylpiperazin-1-yl)-11-oxo-6,11-dihydro-5H-indolo[2,3-b]quinoline-8-carbonitrile], the IC50 worked out at 0.83 nM.

With `COc1c(N2C[C@@H](C)N(C)[C@@H](C)C2)cc2c(c1F)c(=O)c1c3ccc(C#N)cc3[nH]c1n2C(C)C` [compound 8, 1-fluoro-5-isopropyl-2-methoxy-11-oxo-3-(cis-3,4,5-trimethylpiperazin-1-yl)-6,11-dihydro-5H-indolo[2,3-b]quinoline-8-carbonitrile], the IC50 was 0.52 nM. Turning to `CC(C)Oc1c(N2CCN(C3CCOCC3)CC2)cc2c(c1F)c(=O)c1c3ccc(C#N)cc3[nH]c1n2C(C)C` [compound 2, 1-fluoro-2-isopropoxy-5-isopropyl-11-oxo-3-(4-(tetrahydro-2H-pyran-4-yl)piperazin-1-yl)-6,11-dihydro-5H-indolo[2,3-b]quinoline-8-carbonitrile], the IC50 was determined as 1.5 nM. The same measure for `CC(C)Oc1cc2c(=O)c3c4ccc(C#N)cc4[nH]c3n(C(C)C)c2c(F)c1N1C[C@@H](C)N(C)[C@@H](C)C1` [compound 11, 4-fluoro-2-isopropoxy-5-isopropyl-11-oxo-(cis-3,4,5-trimethylpiperazin-1-yl)-6,11-dihydro-5H-indolo[2,3-b]quinoline-8-carbonitrile (TFA salt)]: 7.8 nM; for `COCCOc1cc2c(=O)c3c4ccc(C#N)cc4[nH]c3n(C(C)C)c2c(F)c1N1CCN(C2CCOCC2)CC1` [compound 9, 4-fluoro-5-isopropyl-2-(2-methoxyethoxy)-11-oxo-3-(4-(tetrahydro-2H-pyran-4-yl)piperazin-1-yl)-6,11-dihydro-5H-indolo[2,3-b]quinoline-8-carbonitrile (TFA salt)]: 54.4 nM; for `CC(C)Oc1c(N2CCN(C3COC3)CC2)cc2c(c1F)c(=O)c1c3ccc(C#N)cc3[nH]c1n2C(C)C` [compound 5, 1-fluoro-2-isopropoxy-5-isopropyl-3-(4-(oxetan-3-yl)piperazin-1-yl)-11-oxo-6,11-dihydro-5H-indolo[2,3-b]quinoline-8-carbonitrile]: 4.3 nM. As for `CC(C)Oc1c(N2C[C@@H](C)N(C)[C@@H](C)C2)cc2c(c1F)c(=O)c1c3ccc(C#N)cc3[nH]c1n2C(C)C` [compound 3, 1-fluoro-2-isopropoxy-5-isopropyl-11-oxo-3-(cis-3,4,5-trimethylpiperazin-1-yl)-6,11-dihydro-5H-indolo[2,3-b]quinoline-8-carbonitrile], the figure is 0.57 nM; as for `COCCOc1cc2c(=O)c3c4ccc(C#N)cc4[nH]c3n(C(C)C)c2c(F)c1N1C[C@@H](C)N(C)[C@@H](C)C1` [compound 10, 4-f1uoro-5-isopropyl-2-(2-methoxyethoxy)-11-oxo-3-(cis-3,4,5-trimethylpiperazin-1-yl)-6,11-dihydro-5H-indolo[2,3-b]quinoline-8-carbonitrile (TFA salt)], 16.9 nM; as for `CC(C)Oc1c(N2CCC(N3CCOCC3)CC2)cc2c(c1F)c(=O)c1c3ccc(C#N)cc3[nH]c1n2C(C)C` [Cpd. No. 1, 1-fluoro-2-isopropoxy-5-isopropyl-3-(4-morpholinopiperidin-1-yl)-11-oxo-6,11-dihydro-5H-indolo[2,3-b]quinoline-8-carbonitrile], 2.4 nM.

Turning to `COc1c(N2CCN(C3CCOCC3)CC2)cc2c(c1F)c(=O)c1c3ccc(C#N)cc3[nH]c1n2C(C)C` [compound 7, 1-fluoro-5-isopropyl-2-methoxy-11-oxo-3-(4-(tetrahydro-2H-pyran-4-yl)piperazin-1-yl)-6,11-dihydro-5H-indolo[2,3-b]quinoline-8-carbontrile], the IC50 is 1.4 nM. The same measure for `COc1c(N2CCN(C3COC3)CC2)cc2c(c1F)c(=O)c1c3ccc(C#N)cc3[nH]c1n2C(C)C` [compound 6, 1-fluoro-5-isopropyl-2-methoxy-3-(4-(oxetan-3-yl)piperazin-1-yl)-11-oxo-6,11-dihydro-5H-indolo[2,3-b]quinoline-8-carbonitrile]: 5.4 nM.
